Laboratory results from patent US12667559B2, “Dihydronaphthyridinone compound, and preparation method therefor and medical use thereof” (GENFLEET THERAPEUTICS (SHANGHAI) INC., priority 2020, dated 2026).
Read-outs that look alike come from different tables or passages of the source.

What was measured:
U937 cells = experiment: Inhibitory activity against TNF-α induced programmed cell necrosis (U937 cells, CellTiter-Glo); type: cell-based, human; details: U937 cells, human TNF-α and Q-VD-Oph induced necrosis, 48 hours, survival rate, read-out: U937 IC50
RIPK1 = biological target: T1, RIPK1 (Homo sapiens, UniProt Q13546); experiment: Inhibitory activity against RIPK1 enzyme (33P-ATP, MBP substrate); type: biochemical; details: 36 nM RIPK1, 0.33 mg/ml MBP, 155 μM 33P-ATP, 2 hours, room temperature
T1 construct: purchased Eurofins 16-022
T1 sequence (Q13546 1-671): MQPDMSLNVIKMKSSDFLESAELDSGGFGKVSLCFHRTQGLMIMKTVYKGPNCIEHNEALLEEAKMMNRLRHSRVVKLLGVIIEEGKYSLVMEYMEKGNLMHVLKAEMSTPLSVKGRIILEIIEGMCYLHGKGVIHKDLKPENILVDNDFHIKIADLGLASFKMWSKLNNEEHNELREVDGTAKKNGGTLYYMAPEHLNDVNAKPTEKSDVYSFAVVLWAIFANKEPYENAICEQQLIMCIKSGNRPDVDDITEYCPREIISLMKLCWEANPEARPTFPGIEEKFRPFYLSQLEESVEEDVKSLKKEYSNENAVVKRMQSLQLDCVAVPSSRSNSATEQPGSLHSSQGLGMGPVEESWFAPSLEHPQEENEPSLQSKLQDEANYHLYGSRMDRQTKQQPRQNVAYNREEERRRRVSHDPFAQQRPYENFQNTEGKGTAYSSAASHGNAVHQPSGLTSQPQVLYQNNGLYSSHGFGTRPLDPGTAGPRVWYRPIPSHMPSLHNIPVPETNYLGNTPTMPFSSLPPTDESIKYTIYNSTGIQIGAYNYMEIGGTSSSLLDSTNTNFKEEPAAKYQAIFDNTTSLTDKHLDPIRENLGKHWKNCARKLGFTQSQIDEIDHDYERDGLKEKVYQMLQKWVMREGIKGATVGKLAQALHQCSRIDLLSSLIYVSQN
Excerpt: (§1) The U937 cell line used in the following test examples is from ATCC, with the number of CRL-1593.2, batch number of 63479999, and the culture medium of RPMI-1640+10% FBS. The L929 cell line used in the following test examples is from ATCC, with the number of CCL-1, batch number of 70001022, and the culture medium of MEM+10% FBS+1% PS. The reagents used, and suppliers and article numbers thereof are as follows: RPMI-1640, Gibco, 11875-093; FBS, Gibco, 10099-141; Trypsin-EDTA, Gibco, 25200-072; PS, Gibco, 15140-122; CellTiter Glo, Progema, G7573; DMSO, VWR AMRESCO, 0231-500ML; TNF-α protein (human, recombinant), Peprotech, 300-01A; Q-VD-Oph, MCE, HY-12305; V-shaped bottom plate, Corning, 3894; 384 well low flange white flat bottom polystyrene TC-treated microplates, Corning, 3570; RIPK1, Eurofins, 16-022; MOPS, BDH, 441644J; EDTA, Sigma, E5134; myelin basic protein, Sigma, M1891-25.00 MG; magnesium acetate, Merck, DU008026; ATP (non-radioactive label), Sigma, A-7699; ATP (radioactive label), Hartmann Analytic, DU008054; phosphoric acid, Metlab, DU003000; Z-VAD: Shanghai Twochem Co., Ltd., YA02401.
The compounds to be tested was dissolved in DMSO to prepare a 10 mM stock solution, which was diluted 3.16 times with DMSO into a series of concentration gradients, and then diluted 50 times with MOPS buffer solution (pH 7.0) to prepare a working solution, which were mixed well with 36 nM RIPK1 (final concentration), and 0.33 mg/ml substrate MBP. 10 mM magnesium ions and 155 μM phosphorous 33 isotope-labeled ATP were added to the reaction. The final concentration of DMSO was 2%. After 2 hours of reaction at room temperature, phosphoric acid was added to stop the reaction. The final reaction system was processed and then detected with a liquid scintillation counter.

L929 cells = experiment: Inhibitory activity against TNF-α induced programmed necrosis of L929 cells (CellTiter-Glo); type: cell-based; details: Mus musculus, 30 ng/ml murine TNF-α and 15 μM Z-VAD, 6 hours, survival rate
Excerpt: as §1
The compounds to be tested was dissolved in DMSO and prepared as a 10 mM stock solution, which was diluted 3.16 times with DMSO to form a series of concentration gradients, and then diluted 100 times with culture medium to make a working solution. 10,000 L929 cells/well were seeded on a 384-well white plate, and the corresponding concentration of compound was added to each well to mix with the cells uniformly. At the same time, 30 ng/ml murine TNF-α and 15 μM Z-VAD were added to induce programmed necrosis of the cells. The final concentration of DMSO was 0.2%, and the cells were placed in a 37° C., 5% CO2 incubator for further incubation for 6 hours. CellTiter-Glo reagent was used for detection. After the reaction was fully lysed, the chemiluminescence readings was detected by a microplate reader. The test results were calculated using the formula for survival rate: SR (%)=(RLU compound−RLU blank)/(RLU high control-RLU blank)×100%. The survival rate and the final concentration of the corresponding compound were plotted as a curve, and fitted using a four-parameter model to calculate the inhibitory IC50 of compounds on TNF-α-induced programmed cell necrosis.

Structure (SMILES)	IC50 (U937 cells; Homo sapiens, U-937, 48 h)	IC50 (RIPK1)	IC50 (L929 cells)	IC50 (U937 cells; U-937)	IC50 (U937 cells)
Nc1nc2cc(-c3cnc4c(c3)C(=O)N(Cc3cc(F)cc(F)c3OC3CC3)CC4)ccn2n1 [Z69]	0.0014 µM	0.033 µM	0.0037 µM	–	–
Cn1cc(-c2ccc(F)cc2CN2CCc3ncc(-c4ccn5nc(N)nc5c4)cc3C2=O)cn1 [Z51, 3-(2-amino-[1,2,4]triazolo[1,5-a]pyridyl-7-yl)-6-(5-fluoro-2-(1-methyl-1H-pyrazol-4-yl)benzyl)-7,8-dihydro-1,6-naphthyridin-5(6H)-one]	0.024 µM	0.072 µM	–	–	–
C[C@H](c1ccc(F)cc1)n1cc(N2CCc3ncc(-c4ccn5nc(N)nc5c4)cc3C2=O)cn1 (single isomer, unassigned) [Z74]	0.0038 µM	0.193 µM	0.0023 µM	–	–
Nc1nc2cc(-c3cnc4c(c3)C(=O)N(Cc3cc(F)ccc3OC3CCCC3)CC4)ccn2n1 [Z45, 3-(2-amino-[1,2,4]triazolo[1,5-a]pyridyl-7-yl)-6-(2-(cyclopentyloxy)-5-fluorobenzyl)-7,8-dihydro-1,6-naphthyridin-5(6H)-one]	0.0002 µM	–	0.0013 µM	–	–
Nc1nc2cc(-c3cnc4c(c3)C(=O)N(Cc3cccnc3OC3CCCC3)CC4)ccn2n1 [Z47, 3-(2-amino-[1,2,4]triazole[1,5-a]pyridyl-7-yl)-6-((2-(cyclopentyloxy)pyridyl-3-yl)methyl)-7,8-dihydro-1,6-naphthyridin-5(6H)-one]	0.003 µM	–	0.0051 µM	–	–
Cc1c(-c2ccc(F)cc2CN2CCc3ncc(-c4ccn5nc(N)nc5c4)cc3C2=O)cnn1C [Z82]	0.0234 µM	0.05 µM	–	–	–
O=C(Nc1cn2nc(-c3cnc4c(c3)C(=O)N(Cc3ccccc3OC(F)(F)F)CC4)ccc2n1)C1CC1 [Z10, N-(6-(5-oxo-6-(2-(trifluoromethoxy)benzyl)-5,6,7,8-tetrahydro-1,6-naphthyridin-3-yl)imidazo[1,2-b]pyridazin-2-yl)cyclopropanecarboxamide]	0.0059 µM	0.056 µM	0.0024 µM	–	–
CC(=O)Nc1cn2nc(-c3cnc4c(c3)C(=O)N(Cc3cc(F)cc(F)c3OC3CCOCC3)CC4)ccc2n1 [Z2, N-(6-(6-(3,5-difluoro-2-((tetrahydro-2H-pyran-4-yl)oxy)benzyl)-5-oxo-5,6,7,8-tetrahydro-1,6-naphthyridin-3-yl)imidazo[1,2-b]pyridazin-2-yl)acetamide]	0.000103 µM	0.037 µM	< 0.0028 µM	–	–
C[C@H](c1cc(F)ccc1-c1cnn(C)c1)N1CCc2ncc(-c3ccn4nc(N)nc4c3)cc2C1=O (single isomer, unassigned) [Z85]	0.0043 µM	0.034 µM	0.0134 µM	–	–
CC(=O)Nc1cn2nc(-c3cnc4c(c3)C(=O)N(Cc3ccccc3OC(F)(F)F)CC4)ccc2n1 [Z5, N-(6-(5-oxo-6-(2-(trifluoromethoxy)benzyl)-5,6,7,8-tetrahydro-1,6-naphthyridin-3-yl)imidazo[1,2-b]pyridazin-2-yl)acetamide]	0.0467 µM	–	0.008 µM	–	–
Cc1c(-c2cnc3c(c2)C(=O)N(Cc2ncccc2OC2CC2)CC3)ccn2nc(N)nc12 [Z98, 3-(2-amino-8-methyl-[1,2,4]triazolo[1,5-a]pyridyl-7-yl)-6-((3-cyclopropoxypyridyl-2-yl)methyl)-7,8-dihydro-1,6-naphthyridin-5(6H)-one]	0.417 µM	–	–	–	–
Nc1nc2cc(-c3cnc4c(c3)C(=O)N(Cc3cc(OC(F)(F)F)ccc3F)CC4)ccc2o1 [Z17, 3-(2-aminobenzo[d]oxazol-5-yl)-6-(2-fluoro-5-(trifluoromethoxy)benzyl)-7,8-dihydro-1,6-naphthyridin-5(6H)-one]	–	–	–	0.0575 µM	–
Nc1nc2cc(-c3cc4c(nc3Cl)CCN(Cc3cc(OC(F)(F)F)ccc3F)C4=O)ccn2n1 [Z56, 3-(2-amino-[1,2,4]triazolo[1,5-a]pyridyl-7-yl)-2-chloro-6-(2-fluoro-5-(trifluoromethoxy)benzyl)-7,8-dihydro-1,6-naphthyridin-5(6H)-one]	–	–	–	–	0.004 µM
Nc1ncnn2c(-c3cnc4c(c3)C(=O)N(C3CN(C(=O)c5ccc(F)cc5)CC3F)CC4)cc(C(F)(F)F)c12 (stereo not drawn) [Z36, cis-3-(4-amino-5-(trifluoromethyl)pyrrolo[2,1-f][1,2,4]triazin-7-yl)-6-(4-fluoro-1-(4-fluorobenzoyl)pyrrolidin-3-yl)-7,8-dihydro-1,6-naphthyridin-5(6H)-one]	0.0453 µM	–	–	–	–
Nc1ncnn2c(-c3cnc4c(c3)C(=O)N(Cc3cc(OC(F)(F)F)ccc3F)CC4)cc(C(F)(F)F)c12 [Z24, 3-(4-amino-5-(trifluoromethyl)pyrrolo[2,1-f][1,2,4]triazin-7-yl)-6-(2-fluoro-5-(trifluoromethoxy)benzyl)-7,8-dihydro-1,6-naphthyridin-5(6H)-one]	–	–	–	0.0365 µM	–
